According to patent publication US9162992B2, “Compounds and compositions for treatment of breathing control disorders or diseases” (GALLEON PHARMACEUTICALS, INC., priority 2010, dated 2015):
Values joined by “and” are separate entries in the source; they are usually repeats but may differ in a detail not shown here. Identical values can stand only once.

Assays:
[1] = GMP drug product stability of final formulation (25° C./60% RH and 2-8° C.), degradant CLXXVIII; type: physicochemical
Text: A batch of (XXXVI) formulated for clinical use was placed under formal GMP stability (Tables 20I.1 and […]).

[2] = biological target: T1, BK potassium channel expressed in GH3 cells (Rattus norvegicus, UniProt Q62976); assay: BK potassium channel current in GH3 cells, inside-out patches; type: cell-based; conditions: Almirite 1 (mM as printed)
T1 construct: endogenous in cells; host or cells: GH3 cells
T1 sequence (Q62976 whole entry): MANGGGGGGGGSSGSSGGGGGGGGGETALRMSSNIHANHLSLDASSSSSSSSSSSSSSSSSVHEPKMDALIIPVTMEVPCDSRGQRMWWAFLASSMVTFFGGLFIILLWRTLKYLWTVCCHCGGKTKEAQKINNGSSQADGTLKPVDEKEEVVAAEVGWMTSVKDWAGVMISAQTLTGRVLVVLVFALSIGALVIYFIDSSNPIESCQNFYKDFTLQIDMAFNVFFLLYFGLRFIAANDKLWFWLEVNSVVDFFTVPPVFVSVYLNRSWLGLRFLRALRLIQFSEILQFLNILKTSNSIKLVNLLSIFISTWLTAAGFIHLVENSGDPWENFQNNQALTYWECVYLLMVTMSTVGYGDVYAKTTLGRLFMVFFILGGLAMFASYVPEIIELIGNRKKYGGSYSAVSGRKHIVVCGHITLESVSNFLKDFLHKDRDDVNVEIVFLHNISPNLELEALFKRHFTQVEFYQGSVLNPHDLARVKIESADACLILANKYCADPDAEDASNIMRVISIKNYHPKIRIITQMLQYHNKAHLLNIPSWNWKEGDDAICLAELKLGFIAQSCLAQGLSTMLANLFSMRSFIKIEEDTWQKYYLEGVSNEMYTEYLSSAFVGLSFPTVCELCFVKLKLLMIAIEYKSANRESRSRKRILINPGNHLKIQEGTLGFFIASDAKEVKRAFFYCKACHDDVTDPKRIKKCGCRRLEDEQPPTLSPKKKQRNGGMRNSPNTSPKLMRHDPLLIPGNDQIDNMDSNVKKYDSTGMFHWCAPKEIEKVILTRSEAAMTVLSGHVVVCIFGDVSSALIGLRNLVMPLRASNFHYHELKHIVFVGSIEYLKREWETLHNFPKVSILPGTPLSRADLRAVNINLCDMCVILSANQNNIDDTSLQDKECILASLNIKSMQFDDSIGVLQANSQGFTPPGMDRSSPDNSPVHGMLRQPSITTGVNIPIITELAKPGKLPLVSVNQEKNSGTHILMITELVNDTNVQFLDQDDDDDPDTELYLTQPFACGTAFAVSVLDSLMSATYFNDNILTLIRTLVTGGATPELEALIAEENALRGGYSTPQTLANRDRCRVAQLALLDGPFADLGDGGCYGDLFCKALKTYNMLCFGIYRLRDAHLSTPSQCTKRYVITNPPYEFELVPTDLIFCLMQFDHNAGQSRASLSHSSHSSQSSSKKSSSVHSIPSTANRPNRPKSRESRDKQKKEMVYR
Experimental: Stock solutions of the test article were prepared in dimethylsulfoxide (DMSO) and stored frozen. Test article concentrations were prepared fresh daily by diluting stock solutions into a physiological saline solution (composition in mM): KCl, 125; CaCl2, 8.5; HEPES, 10; EGTA, 11.25; pH adjusted to 7.2 with KOH (prepared weekly and refrigerated until used). All test solutions contained 0.1% DMSO.
GH3 cells were grown in culture using standard procedures. Ionic currents were measured from inside-out patches of GH3 cells. Channel activity was monitored in symmetrical K^+ conditions with a holding potential of −60 mV. Activities before and in the presence of each concentration of test articles were recorded for ≧3 minutes, respectively.
Data acquisition and analyses were performed using the suite of pCLAMP (Ver. 8.2) programs (MDS-AT, Sunnyvale, Calif. Percent inhibition by test article was calculated using the following equation: 100*(NPocontrol−NPotest)/NPocontrol Results

[3] = tested on: spontaneously breathing rats; assay: Minute ventilation (MV) and cardiovascular parameters in naive rats; type: in vivo, rat; design: unit not given here; conditions: 20% HPβCD
Experimental: All surgical procedures were performed under anesthesia induced by 2% isoflurane in compressed medical grade air. With rats in supine position, the right femoral vein was catheterized using polyethylene tubing (PE-50). This catheter was used for fluid and drug administration. Simultaneously, the right femoral artery was also catheterized for monitoring blood pressure and heart rate. In order to measure the respiratory parameters in spontaneously breathing rats, trachea was intubated using 13 gauge tracheal tube (2.5 mm ID, Instech Solomon, Pa.).
After establishing a stable base-line at 1.5% isoflurane, compounds (typically at a dose of 1 mpk) were administered IV, and ventilatory parameters were generated from spontaneously breathing rats, along with cardiovascular output (mean arterial pressure (MAP) and heart rate). Maximum peak minute ventilatory (MV) responses (MPR), along with changes in minute ventilation versus baseline (AMV) were obtained as shown in the tables below.

## CCCNc1nc(O)nc(NCCC)n1 [(CLXXVIII)]
[1]; 5° C., amb. RH, Inverted, T = 1 month
  Level of Degradant (CLXXVIII) in GMP lot# 041I0511: 0.03%
[1]; 5° C., amb. RH, Inverted, T = 3 month
  Level of Degradant (CLXXVIII) in GMP lot# 041I0511: 0.06%
[1]; 5° C., amb. RH, Inverted, T = 6 month
  Level of Degradant (CLXXVIII) in GMP lot# 041I0511: 0.08%
[1]; 5° C., amb. RH, Inverted, T = 9 month
  Level of Degradant (CLXXVIII) in GMP lot# 041I0511: 0.11%
[1]; 5° C., amb. RH, Upright, T = 6 month
  Level of Degradant (CLXXVIII) in GMP lot# 041I0511: 0.08%
[1]; Release Testing, Drug Product Production lot Sample Pull Beg.
  Level of Degradant (CLXXVIII) in GMP lot# 041I0511: 0.00%
[1]; Release Testing, Drug Product Production lot Sample Pull End
  Level of Degradant (CLXXVIII) in GMP lot# 041I0511: 0.00%
[1]; Release Testing, Drug Product Production lot Sample Pull Mid.
  Level of Degradant (CLXXVIII) in GMP lot# 041I0511: 0.00%

## C=CCNc1nc(NCC=C)nc(N2CCN(C(c3ccc(F)cc3)c3ccc(F)cc3)CC2)n1 [Almirite, almitrine, reference compound]
[2]
  Inhibition (%), Average: 94.7%
  NPo, Average: 0.0010
[2]; single patch
  Inhibition (%): 97.9% and 91.5%
  NPo (total channel open probability): 0.0009 and 0.0011

## CCCNc1nc(NCCC)nc(N(C)OC(C)C)n1 [LXIV, N-(4,6-Bis-n-propylamino-[1,3,5]triazin-2-yl)-O-isopropyl-N-methyl-hydroxylamine]
[3]; 1 mpk IV, pH not given
  MV MPR: 271
  MV ΔMV: 209

## CCCNc1nc(NCCC)nc(N(OCc2ccccc2)C(C)C)n1 [LXXII, 6-((Benzyloxy)(isopropyl)amino)-N^2,N^4-dipropyl-1,3,5-triazine-2,4-diamine]
[3]; Table 8, 1 mpk, pH 4
  MV DMV: 82
  MV MPR: 176

## CCCNc1nc(NCCC)nc(N(CC)OC(C)C)n1 [LXXVI, N-(4,6-Bis-n-propylamino-[1,3,5]triazin-2-yl)-N-ethyl-O-isopropyl-hydroxylamine]
[3]; 1 mpk IV, pH 4
  MV MPR: 308
  MV ΔMV: 191
[3]; Table 8, 1 mpk, pH 4
  MV DMV: 191
  MV MPR: 308

## CCCNc1nc(NCCC)nc(N(C)OCC(C)C)n1 [LXXXII, N-(4,6-Bis-n-propylamino-[1,3,5]triazin-2-yl)-O-isobutyl-N-methyl-hydroxylamine]
[3]; 1 mpk IV, pH 4
  MV MPR: 248
  MV ΔMV: 133
[3]; Table 8, 1 mpk, pH 4
  MV DMV: 133
  MV MPR: 248

## CCCNc1nc(NCCC)nc(N(C)OCc2cccs2)n1 [LXXXIV, 6-(Methyl(thiophen-2-ylmethoxy)amino)-N^2,N^4-di-n-propyl-1,3,5-triazine-2,4-diamine]
[3]; 1 mpk IV, pH 4
  MV MPR: 213
  MV ΔMV: 110
[3]; Table 8, 1 mpk, pH 4
  MV DMV: 110
  MV MPR: 213

## CCCNc1nc(NCC)nc(NOC)n1 [N^2-ethyl-6-(methoxyamino)-N^4-n-propyl-1,3,5-triazine-2,4-diamine]
[3]; 1 mpk IV, pH 4-6
  MV MPR: 208
  MV ΔMV: 117

## CCCNc1nc(NC(C)C)c2ccn(C(C)C)c2n1 [N^4,7-diisopropyl-N^2-n-propyl-7H-pyrrolo[2,3-d]pyrimidine-2,4-diamine]
[3]; 1 mpk IV, pH 6
  MV MPR: 250
  MV ΔMV: 155

## CCCNc1nc(NC(C)C)c2ccn(C)c2n1 [N^4-isopropyl-7-methyl-N^2-n-propyl-7H-pyrrolo[2,3-d]pyrimidine-2,4-diamine]
[3]; 1 mpk IV, pH 5
  MV MPR: 402
  MV ΔMV: 320

## CCCNc1nc(NC(C)C)c2cc[nH]c2n1 [N^4-isopropyl-N^2-n-propyl-7H-pyrrolo[2,3-d]pyrimidine-2,4-diamine]
[3]; 1 mpk IV, pH 4
  MV MPR: 259
  MV ΔMV: 172
